Patent publication US7419984B2, “Pyrimidines and uses thereof” (Cell Therapeutics, Inc., priority 2002, dated 2008)

Target: T1, human LPAAT-β (Homo sapiens, UniProt O15120)
T1 construct: the full-length human LPAAT-β cDNA was amplified by PCR; poly-histidine tag (N); made in house; host or cells: Sf9 insect cells (baculovirus, pFastBac HTc); the membrane fraction was used as the enzyme
T1 sequence (O15120 24-278): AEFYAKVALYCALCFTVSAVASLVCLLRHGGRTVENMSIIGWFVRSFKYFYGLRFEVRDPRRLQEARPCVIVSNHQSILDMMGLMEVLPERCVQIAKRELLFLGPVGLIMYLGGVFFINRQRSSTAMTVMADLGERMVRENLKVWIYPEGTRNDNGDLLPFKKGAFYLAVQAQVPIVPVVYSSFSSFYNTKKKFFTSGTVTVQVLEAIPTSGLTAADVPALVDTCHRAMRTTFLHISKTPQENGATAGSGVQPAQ
Assay: LPAAT-β cell-free assay
Assay type: biochemical
Conditions: Sf9 cell membrane overexpressing recombinant LPAAT-β
Text: For the construction of Baculovirus expression vectors, the full-length human LPAAT-β cDNA was amplified by PCR from the DNA template pCE9.LPAAT-β (West et al., DNA Cell Bid. 16.691-701 (1997)) using the primers 5′-[…] […] […] […]-3′ (olpb1F; SEQ ID NO:1) and 5′-[…] […] […]-3′ (olpb1R; SEQ ID NO:2). The ˜870 bp fragment generated was reamplified by PCR using the primers 5′ […] […] […] […] ATC-3′ (olpb2F; SEQ ID NO:3) and 5′-[…] […] […]-3′ (olpb1R; SEQ ID NO:2). The ˜890 bp fragment generated was then cleaved with Sal I and Xba I for insertion into pFastBac™ HTc vector (Life Technologies, Gaithersberg, M.d.) between the Sal I and Xba I sites for the generation of the plasmid pFB.LPAAT-β. This plasmid was then transformed into E. coli DH10Bac™ (Life Technologies, Gaithersberg, M.d.) for the generation of recombinant Bacmid DNA for transfection in HighFive (Invitrogen, San Diego, Calif.) or SF9 insect cells for the production of recombinant Baculovirus stocks using the protocol described in the Bac-to-Bac® Baculovirus Expression System (Life Technologies, Gaithersberg, M.d.), a eukaryotic expression system for generating recombinant baculovirus through site-specific transposition in E. coli. Viral stocks harvested from the transfected cells can then be used to infect fresh insect cells for the subsequence expression of LPAAT-β fusion protein with a poly-histidine tag and a myc-epitope near its N-terminus. The membrane fraction from these Sf9 cells would be the source of LPAAT enzyme.
For the preparation of membranes from Sf9 Cells, all steps are performed on ice or at 4° C. Sf9 cell pellets (˜10^8 cells) were thawed and resuspended in 1-2 ml of buffer A (20 mM Hepes, pH 7.5, 1 mM DTT, 1 mM EDTA, 20% w/v glycerol, 1 mM Benzamidine, 1 μg/ml soybean trypsin inhibitor (SBTI), 1 μug/ml pepstatin A) w/o DTT but with 1 mM Pefabloc. The cells were lysed by sonication using a Branson Sonifier at output=2, duty cycle=2, 10 pulses each at 10 s. with the tip of small sonicator probe submerged but not touching the walls. DTT was then added to 1 mM from a 1 M stock. The samples were centrifuged at 1500 rpm for 5 min. The low speed supernatant was saved and centrifuged (TLA 100.3 rotor, polycarbonate tubes, 2 ml/tube or 1.5 ml/tube minimum) at 100000×g for 1 hr. The high speed pellet was resuspend in Buffer A with a probe sonicator (10 pulses @ output #2 and duty cycle 20%) as a source of LPAAT enzyme.
LPAAT-β catalyzes the transfer of an acyl group from a donor such as acyl-CoA to LPA. The transfer of the acyl group from acyl-CoA to LPA leads to the release of free CoA, which can be reacted with the thiol reagent, 5,5′-dithiobis(2-nitrobenzoic acid) (DTNB). The reaction between DTNB and the free sulfhydryl group from CoA generates a yellow-colored product, 3-carboxylato-4-nitrothiophenolate (CNP), that absorbs at 413 nm. LPAAT-β derived from Sf9 cell membrane overexpressing LPAAT-β were resuspended in HEPES saline buffer (20 mM HEPES pH 7.5, 150 mM NaCl), 1 mg/ml BSA and 72 μl aliquots were distributed into 96-well microtiter plates. 8 μl of compound of interest at 200 μM dissolved in 100% DMSO was added into each well. […] of 1 mM 18:1-CoA and 1 mM sn-1-18:1 lysoPA was then added to each well to initiate the reaction and allowed to run at room temperature for 25 min. 100 μl of 1 mM DTNB in 100% ethanol was then added to each well to quench the reaction and for color development. The absorbance at 405 nm, measured using a spectrophotometer plate reader, is proportional to the activity of LPAAT-2 in the sample. This colorimetric assay was used for the high throughput screening of LPAAT inhibitors.
The radiometric assay was carried out in Sf9 cell membrane overexpressing LPAAT-β resuspended in HEPES-saline buffer, pH 7.5, 1 mg/ml BSA, 1 mM EDTA and 200 μM [^14C]18:1-CoA and 200 μM sn-1-18:1 lysoPA.

SMILES | IC50 | LPAAT-β cell-free assay (IC50, μM)
COc1ccc(Cl)cc1-c1nc(N)nc(Nc2ccc3cn[nH]c3c2)c1C [Example 51, 6-(5-Chloro-2-methoxy-phenyl)-5-methyl-N*4*-(1H-indazol-6-yl)-pyrimidine-2,4-diamine] | – | Lessactive
COc1ccc(Cl)cc1-c1nc(N)nc(Nc2ccc3cn[nH]c3c2)c1Br [Example 52, 5-Bromo-6-(5-chloro-2-methoxy-phenyl)-N*4*-(1H-indazol-6-yl)-pyrimidine-2,4-diamine] | 500 nM | –
CCOc1ccc(Cl)cc1-c1cc(Nc2ccc(OC)cc2)nc(N)n1 [Example 58, 6-(5-Chloro-2-ethoxy-phenyl)-N*4*-(4-methoxy-phenyl)-pyrimidine-2,4-diamine] | 200 nM | –
CCOc1ccc(Br)cc1-c1cc(Nc2ccc(C(=O)c3ccccc3)cc2)nc(N)n1 [Example 59, {4-[2-Amino-6-(5-bromo-2-ethoxy-phenyl)-pyrimidin4-ylamino]-phenyl}-phenyl-methanone] | 210 nM | –
CCOc1ccc(Br)cc1-c1cc(Nc2ccc(C(=O)OC)cc2)nc(N)n1 [Example 61, 4-[2-Amino-6-(5-bromo-2-ethoxy-phenyl)-pyrimidin-4-ylamino]-benzoic acid methyl ester] | 350 nM | –
CCOc1ccc(Cl)cc1-c1cc(Nc2ccc(COC(=O)CN)cc2)nc(N)n1 [Example 64, Amino acetic acid-4-[2-amino-6-(5-chloro-2-ethoxy-phenyl)-pyrimidin-4-ylamino]-benzyl ester] | 1500 nM | –
CCOc1ccc(Cl)cc1-c1cc(Nc2ccc(CO)cc2)nc(NC)n1 [Example 65, {4-[6-(5-Chloro-2-ethoxy-phenyl)-2-methylamino-pyrimidin4-ylamino]-phenyl}-methanol] | 140 nM | –
CCOc1ccc(Cl)cc1-c1cc(Nc2ccc(-c3cnco3)cc2)nc(N)n1 [Example 66, 6-(5-Chloro-2-ethoxy-phenyl)-N*4*-(4-oxazol-5-yl-phenyl)-pyrimidine-2,4-diamine] | 450 nM | –
COc1ccc(C)c(-c2cc(Nc3ccc(Cl)cc3)nc(N)n2)c1 [Example 71, N*4*-(4-Chloro-phenyl)-6-(5-methoxy-2-methyl-phenyl)-pyrimidine-2,4-diamine] | 210 nM | –
Nc1nc(Nc2ccc(Cl)cc2)cc(-c2cc(Br)ccc2O)n1 [Example 72, 2-[2-Amino-6-(4-chloro-phenylamino)-pyrimidin-4-yl]-4-bromo-phenol] | 450 nM | –
Cc1ccc(C)c(-c2cc(Nc3ccc(Cl)cc3)nc(N)n2)c1 [Example 73, N*4*-(4-Chloro-phenyl)-6-(2,5-dimethyl-phenyl)-pyrimidine-2,4-diamine] | 160 nM | –
Cc1ccc(C)c(-c2cc(Nc3ccc(CCO)cc3)nc(N)n2)c1 [Example 74, 2-{4-[2-Amino-6-(2,5-dimethyl-phenyl)-pyrimidin-4-ylamino]-phenyl}-ethanol] | 550 nM | –
CNC(=O)c1cc(Nc2cc(-c3cc(Br)ccc3C)nc(N)n2)ccc1Cl [Example 75, 5-[2-Amino-6-(5-bromo-2-methyl-phenyl)-pyrimidin-4-ylamino]-2-chloro-N-methyl-benzamide] | 180 nM | –
Cc1ccc(F)cc1-c1cc(Nc2ccc(C(F)(F)F)cc2)nc(N)n1 [Example 76, 6-(5-Fluoro-2-methyl-phenyl)-N*4*-(4-trifluoromethyl-phenyl)-pyrimidine-2,4-diamine] | 710 nM | –
CNC(=O)c1cc(Nc2cc(-c3cc(Cl)ccc3C)nc(N)n2)ccc1Br [Example 77, 5-[2-Amino-6-(5-chloro-2-methyl-phenyl)-pyrimidin4-ylamino]-2-bromo-N-methyl-benzamide] | 370 nM | –
CNC(=O)c1cc(Nc2cc(-c3cc(Br)ccc3C)nc(N)n2)ccc1Br [Example 78, 5-[2-Amino-6-(5-bromo-2-methyl-phenyl)-pyrimidin-4-ylamino]-2-bromo-N-methyl-benzamide] | 210 nM | –
Cc1ccc(Cl)cc1-c1cc(Nc2ccc3c(c2)C(=O)NC3=O)nc(N)n1 [Example 79, 5-[2-Amino-6-(5-chloro-2-methyl-phenyl)-pyrimidin4-ylamino]-isoindole-1,3-dione] | 900 nM | –
Cc1ccc(Br)cc1-c1cc(Nc2ccc(N=[N+]=[N-])cc2)nc(N)n1 [Example 81, [6-(5-Bromo-2-methyl-phenyl)-(4-azido-phenyl)-pyrimidine]-2,4-diamine] | 190 nM | –
Cc1ccc(Br)cc1-c1cc(Nc2ccc(C(F)(F)F)cc2)nc(N)n1 [Example 82, 6-(S-Bromo-2-methyl-phenyl)-N*4*-(4-trifluoromethyl-phenyl)-pyrimidine-2,4-diamine] | 100 nM | –

Results, then the compound that gave them:

IC50 | LPAAT-β cell-free assay (IC50, μM) | SMILES
46 nM | – | COc1ccc(Cl)cc1-c1cc(Nc2ccc(CCO)cc2)nc(N)n1 [Example 50, 2-{4-[2-Amino-6-(5-chloro-2-methoxy-phenyl)-pyrimidin-4-ylamino]-phenyl}-ethanol]
95 nM | – | CCOc1ccc(Cl)cc1-c1cc(Nc2ccc(C)cc2)nc(N)n1 [Example 53, 6-(5-Chloro-2-ethoxy-phenyl)-N*4*-p-tolyl-pyrimidine-2,4-diamine]
24 nM | – | CCOc1ccc(Cl)cc1-c1cc(Nc2ccc3cn[nH]c3c2)nc(N)n1 [Example 54, 6-(5-Chloro-2-ethoxy-phenyl)-N*4*-(1H-indazol-6-yl)-pyrimdine-2,4-diamine]
17 nM | – | CCOc1ccc(Cl)cc1-c1cc(Nc2ccc(Cl)cc2)nc(N)n1 [Example 55, 6-(5-Chloro-2-ethoxy-phenyl)-N*4*-(4-chloro-phenyl)-pyrimidine-2,4-diamine]
70 nM | – | CCOc1ccc(Cl)cc1-c1cc(Nc2ccc(C(F)(F)F)cc2)nc(N)n1 [Example 56, 6-(5-Chloro-2-ethoxy-phenyl)-N*4*-(4-trifluoromethyl-phenyl)-pyrimidine-2,4-diamine]
22 nM | – | CCOc1ccc(Cl)cc1-c1cc(Nc2ccc(C#N)cc2)nc(N)n1 [Example 57, 4-[2-Amino-6-(5-chloro-2-ethoxy-phenyl)-pyrimidin4-ylamino]-benzonitrile]
60 nM | – | CCOc1ccc(Br)cc1-c1cc(Nc2ccc(C(F)(F)F)cc2)nc(N)n1 [Example 60, 6-(5-Bromo-2-ethoxy-phenyl)-N*4*-(4-trifuoromethyl-phenyl)-pyrimidin-2,4-diamine]
80 nM | – | CCOc1ccc(Br)cc1-c1cc(Nc2ccc(CO)cc2)nc(N)n1 [Example 62, {4-[2-Amino-6-(5-bromo-2-ethoxy-phenyl)-pyrimidin4-ylamino]-phenyl}-methanol]
83 nM | – | CCOc1ccc(Cl)cc1-c1cc(Nc2ccc(COC(=O)CCC(=O)O)cc2)nc(N)n1 [Example 63, Succinic acid mono-{4-[2-amino-6-(5-chloro-2-ethoxy-phenyl)-pyrimidin-4-ylamino]-benzyl}-ester]
29 nM | – | CCOc1ccc(Br)cc1-c1cc(Nc2ccc(CCO)cc2)nc(N)n1 [Example 70, 2-{4-[2-Amino-6-(5-bromo-2-ethoxy-phenyl)-pyrimidin-4-ylamino]-phenyl}-ethanol]
